The test system of experiment [1] is cyclic AMP/phosphodiesterase. In words: Inhibitory action of cyclic AMP/phosphodiesterase (crude enzyme fraction from sonicated rabbit platelets). The experiment is classed as biochemical. The conditions noted are these: 40 min. The procedure: The pharmacological activity of the present compounds [1] is illustrated below. (1) Inhibitory action of cyclic AMP/phosphodiesterase:
A mixture of 2 mM MgCl2 /40 mM Tris-buffer (pH 7.5) 700 μl, enzyme solution (a crude enzyme fraction obtained from sonicated rabbit platelets) 100 μl, and a test sample solution (compound [1] dissolved in 50% aqueous methanol) 100 μl is incubated at 30° C. for 5 mins. 3', 5'-cyclic AMP 100 μl (50 μg) is added thereto and the mixture is further incubated for 40 mins. The reaction is stopped by heating 100° C. for 5 mins. The amount of 5'-AMP in the supernatant obtained by centrifugation at 3000 rpm for 5 mins. is measured using HPLC.
As shown in that table, the compound of the present invention has cyclic AMP/phosphodiesterase inhibitory activity at 1-10 μg/ml.

Experiment [2] deals with rabbit platelet-rich plasma. As to the kind of experiment: Platelet aggregation inhibition (rabbit platelet-rich plasma, aggregometer). The conditions noted are these: Oryctolagus cuniculus, compound final concentration 10 μM, read-out: Inhibitory ratio. The experiment is classed as cell-based. The procedure: (2) Platelet aggregation inhibition:
A rabbit platelet-rich plasma (5×10^5 /mm^3), to which was added 1/10 volume of a 3.8% sodium citrate solution, 216 μl, is incubated in an aggregometer at 37° C., 1000 rpm, for 3 mins. A test sample solution 12 μl (final concentration 10 μM) is added thereto and the mixture is further incubated for 3 mins., and collagen (aggregation agent) 2.5 μg/ml, ADP 2.5 μM, platelet activating factor (PAF) 0.05 μg/ml or 0.25 mM arachidonic acid (A.A.) 12 μl is added thereto as an aggregating agent, and the platelet aggregation activity is measured.

Setting [3] is: aggregating agent PAF 0.05 μg/ml.
Where [4] appears, read: aggregating agent arachidonic acid (A.A.) 0.25 mM.
Where [5] appears, read: aggregating agent collagen 2.5 μg/ml.

The text below walks through data of patent US4870175A, “6-substituted alkoxy-2-oxo-1,2-dihydroquinoxaline derivatives” (Toyo Jozo Kabushiki Kaisha, priority 1987, dated 1989).

Molecules are shown by their SMILES. Read-outs that look alike come from different tables or passages of the source.

In the case of `CCCc1nc2cc(OCCCC(=O)N(CCO)C3CCCCC3)ccc2[nH]c1=O` [Compound 975], the figures for the Inhibitory ratio in experiment [1] (1 μg/ml), in experiment [1] (10 μg/ml) and in experiment [1] (100 μg/ml) were 59.5%, 88.9% and 93.5%, respectively.
For the molecule `CN(C(=O)CCCOc1ccc2[nH]c(=O)c(-c3ccccc3)nc2c1)C1CCCCC1` [Compound 986], the figures for the Inhibitory ratio in experiment [1] (1 μg/ml) and in experiment [1] (10 μg/ml) were 66.2% and 80.5%, respectively.
The like results for `Cc1nc2cc(OCCCC(=O)N3CCC(c4ccccc4)CC3)ccc2[nH]c1=O` [Compound 970] were, in that order, 24.1% and 51.5%.
For `O=C(O)CCCOc1ccc2[nH]c(=O)c(-c3ccccc3)nc2c1` [Compound 964], the Inhibitory ratio amounted to 43.8% in experiment [1] (1 μg/ml), 78.8% in experiment [1] (10 μg/ml) and 90.5% in experiment [1] (100 μg/ml).
With `CCCCc1nc2cc(OCCCC(=O)N(C)C3CCCCC3)ccc2[nH]c1=O` [Compound 976], the Inhibitory ratio turned out to be 51.1% in experiment [1] (1 μg/ml) and 84.5% in experiment [1] (10 μg/ml).
The like results for `CCCc1nc2cc(OCCCC(=O)N(C)C3CCCCC3)ccc2[nH]c1=O` [Compound 974] were, in that order, 73.2% and 91.7%.
On to `CCc1nc2cc(OCCCC(=O)N(CCO)C3CCCCC3)ccc2[nH]c1=O` [Compound 972], for which the inhibition at 10 µM in experiment [2] (aggregating agent ADP 2.5 μM) was determined as 63.6%; in experiment [2] (setting [3]), 56.3%; in experiment [2] (setting [4]), 48.7%; in experiment [2] (setting [5]), 70.5%. In addition, the Inhibitory ratio in experiment [1] (1 μg/ml) turned out to be 84.4%; in experiment [1] (10 μg/ml), 93.4%.
`O=C(CCCOc1ccc2[nH]c(=O)cnc2c1)N(CCO)C1CCCCC1` [Compound 917]: the inhibition at 10 µM in experiment [2] (aggregating agent ADP 2.5 μM) stood at 36.9%; in experiment [2] (setting [3]), 36.7%; in experiment [2] (setting [4]), 32.6%; in experiment [2] (setting [5]), 57.4%. Besides, the Inhibitory ratio in experiment [1] (1 μg/ml) is 16.6%; in experiment [1] (10 μg/ml), 59.3%; in experiment [1] (100 μg/ml) it was 87.7%.
In the case of `CCN(CC)C(=O)CCCOc1ccc2[nH]c(=O)c(-c3ccccc3)nc2c1` [Compound 988], the Inhibitory ratio in experiment [1] (1 μg/ml) came to 46.4%; in experiment [1] (10 μg/ml), 76.9%.
Take `CCCCCCc1nc2cc(OCCCC(=O)O)ccc2[nH]c1=O` [Compound 959]: the Inhibitory ratio came to 43.4% in experiment [1] (1 μg/ml), 80.5% in experiment [1] (10 μg/ml) and 91.0% in experiment [1] (100 μg/ml).
Turning to `CCCCCCc1nc2cc(OCCCC(=O)N(CCO)C3CCCCC3)ccc2[nH]c1=O` [Compound 978], the Inhibitory ratio is on record as 26.2% in experiment [1] (1 μg/ml) and 40.1% in experiment [1] (10 μg/ml).
Consider `O=C(CCCCOc1ccc2[nH]c(=O)cnc2c1)N(Cc1ccccc1)C1CCCCC1` [Compound 922], for which the Inhibitory ratio in experiment [1] (1 μg/ml) was 61.7%; in experiment [1] (10 μg/ml) it was 88.1%; in experiment [1] (100 μg/ml) it was 91.1%.
As to `CCOC(=O)CCCCOc1ccc2c(c1)NCC(=O)N2` [Compound 927], the Inhibitory ratio is reported as 10.5% in experiment [1] (1 μg/ml), 47.7% in experiment [1] (10 μg/ml) and 76.1% in experiment [1] (100 μg/ml).
The like results for `COc1ccccc1N1CCN(C(=O)CCCCOc2ccc3[nH]c(=O)cnc3c2)CC1` [Compound 924] were, in that order, 24.6%, 63.5% and 70.2%.
Turning to `O=c1cnc2cc(OCCCCc3nnnn3C3CCCCC3)ccc2[nH]1` [Compound 913, 6-[4-(1-cyclohexyl-tetrazole-5-yl)-butoxy]-2-oxo-1,2-dihydroquinoxaline], the Inhibitory ratio in experiment [1] (1 μg/ml) was 19.2%; in experiment [1] (10 μg/ml) it was 80.3%.
As for `CN(C(=O)CCCOc1ccc2c(c1)NCC(=O)N2)C1CCCCC1` [Compound 929, 6-[3-(N-cyclohexyl-N-methyl-aminocarbonyl)propoxy]-2-oxo-1,2,3,4-tetrahydroquinoxaline], the inhibition at 10 µM in experiment [2] (aggregating agent ADP 2.5 μM) stood at 49.4%; in experiment [2] (setting [3]), 30.4%; in experiment [2] (setting [4]), 41.8%; in experiment [2] (setting [5]), 50.8%. The Inhibitory ratio in experiment [1] (1 μg/ml) was determined as 11.2%; in experiment [1] (10 μg/ml), 53.9%; in experiment [1] (100 μg/ml) it was 88.5%.
Regarding `CCCCCCc1nc2cc(OCCCC(=O)OCC)ccc2[nH]c1=O` [Compound 949], the Inhibitory ratio in experiment [1] (1 μg/ml) was determined as 40.9%; in experiment [1] (10 μg/ml), 53.7%.
For the molecule `CCc1nc2cc(OCCCC(=O)O)ccc2[nH]c1=O` [Compound 956], the Inhibitory ratio in experiment [1] (1 μg/ml) turned out to be 83.9%; in experiment [1] (10 μg/ml), 92.9%; in experiment [1] (100 μg/ml), 95.0%.
Taken in the same sequence, the figures for `O=C(CCCOc1ccc2[nH]c(=O)cnc2c1)N(Cc1ccccc1)C1CCCCC1` [Compound 916] were 47.3%, 78.0% and 85.7%.
As for `Cc1nc2cc(OCCCC(=O)N(C)C3CCCCC3)ccc2[nH]c1=O` [Compound 965], the Inhibitory ratio worked out at 68.9% in experiment [1] (1 μg/ml) and 87.3% in experiment [1] (10 μg/ml).
Turning to `O=C(O)CCCOc1ccc2[nH]c(=O)cnc2c1` [Compound 938, 6-(3-carboxypropoxy)-2-oxo-1,2-dihydroquinoxaline], the Inhibitory ratio is on record as 17.9% in experiment [1] (1 μg/ml), 63.1% in experiment [1] (10 μg/ml) and 88.2% in experiment [1] (100 μg/ml).
Taken in the same sequence, the figures for `CCN(CC)C(=O)CCCOc1ccc2[nH]c(=O)c(C)nc2c1` [Compound 967] were 38.0%, 81.0% and 92.8%.
Regarding `CCCCCCCCCc1nc2cc(OCCCC(=O)O)ccc2[nH]c1=O` [Compound 960], the Inhibitory ratio in experiment [1] (1 μg/ml) was found to be 34.8%; in experiment [1] (10 μg/ml) it was 61.7%; in experiment [1] (100 μg/ml), 87.4%.
On to `CCCc1nc2cc(OCCCC(=O)O)ccc2[nH]c1=O` [Compound 957], for which the Inhibitory ratio in experiment [1] (1 μg/ml) is reported as 71.4%; in experiment [1] (10 μg/ml) it was 90.7%; in experiment [1] (100 μg/ml), 94.0%.
The like results for `O=C(CCCOc1ccc2[nH]c(=O)c(-c3ccccc3)nc2c1)N(CCO)C1CCCCC1` [Compound 987] were, in that order, 57.4%, 83.3% and 90.2%.
On to `CCOC(=O)CCCOc1ccc2[nH]c(=O)cnc2c1` [Compound 914, 6-(3-ethoxycarbonylpropoxy)-2-oxo-1,2-dihydroquinoxaline], for which the Inhibitory ratio is given as 18.1% in experiment [1] (1 μg/ml), 34.3% in experiment [1] (10 μg/ml) and 54.4% in experiment [1] (100 μg/ml).
As to `CCCCc1nc2cc(OCCCC(=O)O)ccc2[nH]c1=O` [Compound 958], the figures for the Inhibitory ratio in experiment [1] (1 μg/ml), in experiment [1] (10 μg/ml) and in experiment [1] (100 μg/ml) were 69.9%, 91.4% and 93.7%, respectively.
Consider `Cc1nc2cc(OCCCC(=O)N(Cc3ccccc3)C3CCCCC3)ccc2[nH]c1=O` [Compound 969], for which the Inhibitory ratio in experiment [1] (1 μg/ml) was 72.7%; in experiment [1] (10 μg/ml), 82.5%.
With `CCOC(=O)CCCCOc1ccc2[nH]c(=O)cnc2c1` [Compound 919], the Inhibitory ratio in experiment [1] (1 μg/ml) is 23.9%; in experiment [1] (10 μg/ml), 65.2%; in experiment [1] (100 μg/ml) it was 92.4%.
Consider `COc1ccccc1N1CCN(C(=O)CCCOc2ccc3[nH]c(=O)c(C)nc3c2)CC1` [Compound 968], for which the Inhibitory ratio in experiment [1] (1 μg/ml) is 17.1%; in experiment [1] (10 μg/ml), 60.3%.
In the case of `Cc1nc2cc(OCCCC(=O)O)ccc2[nH]c1=O` [Compound 955, 3-methyl-6-(3-carboxypropoxy)-2-oxo-1,2-dihydroquinoxaline], the Inhibitory ratio is recorded as 44.2% in experiment [1] (1 μg/ml), 82.3% in experiment [1] (10 μg/ml) and 93.0% in experiment [1] (100 μg/ml).
As for `CCOC(=O)CCCOc1ccc2[nH]c(=O)c(-c3ccccc3)nc2c1` [Compound 954], the Inhibitory ratio in experiment [1] (1 μg/ml) worked out at 42.4%; in experiment [1] (10 μg/ml), 54.2%.
The like results for `CCc1nc2cc(OCCCC(=O)N(C)C3CCCCC3)ccc2[nH]c1=O` [Compound 971] were, in that order, 84.4% and 93.0%.
Take `COc1ccccc1N1CCN(C(=O)CCCOc2ccc3[nH]c(=O)cnc3c2)CC1` [Compound 918]: the Inhibitory ratio in experiment [1] (1 μg/ml) is 19.8%; in experiment [1] (10 μg/ml), 61.0%; in experiment [1] (100 μg/ml), 87.9%.
Taken in the same sequence, the figures for `CCCCc1nc2cc(OCCCC(=O)OCC)ccc2[nH]c1=O` [Compound 948] were 62.9%, 87.9% and 92.7%.
Consider `CCc1nc2cc(OCCCC(=O)N3CCN(c4ccccc4OC)CC3)ccc2[nH]c1=O` [Compound 973], for which the Inhibitory ratio was determined as 37.6% in experiment [1] (1 μg/ml) and 42.2% in experiment [1] (10 μg/ml).
